In PubChem BioAssay AID1919013 (Molecular Pharmacology Branch, DTP, NCI, 2023):
Where “and” joins values, the source holds several entries; their conditions need not be identical. Equal entries are not always repeated.

System: LG0703-F498-PDC complex spheroid growth
Assay: Anticancer human tumor LG0703-F498-PDC patient-derived lung adenocarcinoma cell line growth inhibition [AhR]
Conditions: for viability, T/C: stronger effect = lower value
Source text: Multicellular complex tumor spheroid response to aryl hydrocarbon receptor antagonists in combination with a variety of drugs and investigational agents in selected tumor cell lines
The current study was undertaken to assess response to aryl hydrocarbon receptor antagonists in combination with standard-of-care drugs and investigational agents in solid tumor complex spheroid models. Complex spheroids include a stromal component modeled by human endothelial cells (HUVEC) and fibroblasts modeled by human mesenchymal stem cells (MSCs). The concentration ranges selected for each drug and investigational agent were based upon clinically achievable concentrations if the clinical Cmax of the agent was known.
Compounds. The drugs and investigational agents: BAY 2416964 (NSC825713), GNF351 (NSC835774), CH-223191 (NSC835775), CPI-455 (NSC825282), aza-TdCyd (NSC777586), decitabine (NSC127716), belinostat (NSC758774), entinostat (NSC756642), pevonedistat (NSC761192), tazemetostat (NSC777109), talazoparib (NSC765396), olaparib (NSC753686), selinexor (NSC780203), nedisertib (M3814, NSC802822), bortezomib (NSC756655), venetoclax (NSC766270), doxorubicin (NSC123127), elimusertib (BAY189344, NSC800525), ceralasertib (AZD6738, NSC777638), TAK-243 (NSC785004), alisertib (NSC759677), etoposide (NSC141540), topotecan (NSC609699), eribulin (NSC707389), gemcitabine (NSC613327), carboplatin (NSC241240), cisplatin (NSC119875), and SN-38 (NSC673596) were obtained from the National Cancer Institute (NCI) Developmental Therapeutics Program Chemical Repository (32). The FDA-approved anticancer drug set is available from the Developmental Therapeutics Program at https://dtp.cancer.gov/organization/dscb/obtaining/available plates.htm. […] The stock solutions were prepared in dimethyl sulfoxide (DMSO, Sigma-Aldrich, St. Louis, MO, cat. D2650), except for the platinum compounds which were prepared in saline (Quality Biological, Gaithersburg, MD, cat. 114-055-101), at 800-fold the tested concentration and stored at -70 degrees C prior to their use. All drugs and investigational agents were tested over a range starting from a high concentration at or near the clinical Cmax and decreasing in half-log increments. If the clinical Cmax for an agent had not been determined, the highest concentration tested was 10 microM (Table 1).
Cell Culture. All cells were maintained in an incubator at 37 degrees C and 5% CO2 with 95% humidity. The PDC lines were cultured according to standard operating procedures established by the NCI PDMR (https://pdmr.cancer.gov). Briefly, all PDCs were thawed and cultured in Matrigel-coated flasks prepared with a working solution of 1X Ham's F-12 nutrient mix, without supplementation (Invitrogen, Waltham, MA, cat. 11765054), 100 U/mL penicillin-streptomycin (Invitrogen, cat. 15140122), and 2.5% Matrigel (Corning Inc., Corning, NY, cat. 354248) for the first three passages. All PDCs were cultured in complete DMEM/F-12 media containing advanced DMEM/F-12 (Invitrogen, cat. 12634028), 4.9% defined fetal bovine serum, heat inactivated (HyClone Laboratories Inc., Logan, UT, cat. SH30070.03HI), 389 ng/mL hydrocortisone (Sigma-Aldrich, cat. H4001), 9.7 ng/mL human EGF recombinant protein (Invitrogen, cat. PHG0313), 23.4 microg/mL adenine (Sigma-Aldrich, cat. A2786), 97.3 U/mL penicillin-streptomycin (Invitrogen, cat. 15140122), 1.9 mM L-glutamine (Invitrogen, cat. 25030081), and 9.7 microM Y-27632 dihydrochloride (Tocris Bioscience, Bristol, United Kingdom, cat. 1254). The PDCs were cultured in complete DMEM/F12 media without 10 microM Y-27632 dihydrochloride for at least two passages prior to the screen. The established cell lines NCI-H1341 and […] were cultured in DMEM/F-12, HEPES (Invitrogen, cat. 11330032), 5% defined fetal bovine serum (HyClone Laboratories Inc., cat. SH30070.03), ITS premix universal culture supplement [insulin (5 microg/mL), transferrin (5 microg/mL), and selenious acid (5 ng/mL)] […]
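Further: luminescence taken as a proxy for viable cell amount.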
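Wherever viability, T/C is given: percent of DMSO vehicle control where 100% means growth equal to vehicle.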

| SMILES | IC50 (curve of compound) | viability, T/C (compound 0.0316 µM) | viability, T/C (compound 0.1 µM) | viability, T/C (compound 0.316 µM) | viability, T/C (compound 1 µM) | viability, T/C (compound 3.16 µM) | viability, T/C (compound 10 µM) | also measured |
| --- | --- | --- | --- | --- | --- | --- | --- | --- |
| CC(C)CC(NC(=O)C(Cc1ccccc1)NC(=O)c1cnccn1)B(O)O (stereo not given) | 0.00429 µM and 0.0055 µM and 0.00288 µM | – | – | – | – | – | – | viability, T/C (compound 0.000949 µM): 99.7% and 97.7% and 92.7%; viability, T/C (compound 0.003 µM): 69.5% and 94.8% and 48.4%; viability, T/C (compound 0.00949 µM): 6.8% and 9.74% and 2.07%; viability, T/C (compound 0.03 µM): 0.44% and 0.8% and 0.23%; viability, T/C (compound 0.0949 µM): 0.15% and 0.2% and 0.16%; viability, T/C (compound 0.3 µM): 0.19% and 0.35% and 0.18% |
| CC(C)c1c(-c2ccccc2)nc2c(C#N)c[nH]n2c1=O | > 10 µM | 101% and 99.1% and 108% | 96.1% and 98.3% and 103% | 105% and 107% and 103% | 87% and 102% and 104% | 88.2% and 91.2% and 91.7% | 99.6% and 90.7% and 93.6% | – |
| CC(CO)NC(=O)c1cc(-c2ccc(Cl)cc2)nn(-c2cnn(C)c2)c1=O (stereo not given) | – | – | – | – | 87.9% [middle of 21 runs] | – | 77% [middle of 19 runs] | IC50 (compound alone, run of 05/31/2022): > 10 µM |
| CC1(C)CCC(CN2CCN(c3ccc(C(=O)NS(=O)(=O)c4ccc(NCC5CCOCC5)c([N+](=O)[O-])c4)c(Oc4cnc5[nH]ccc5c4)c3)CC2)=C(c2ccc(Cl)cc2)C1 | 9.24 µM and 6.4 µM and 6.39 µM | 100% and 112% and 101% | 105% and 99.6% and 110% | 94.1% and 105% and 96.2% | 98.5% and 101% and 95.5% | 98.2% (2×) and 102% | 46.4% and 19.4% and 17.5% | – |
| CC1COCCN1c1cc(-c2ccnn2C)c2ccnc(-c3ccn[nH]3)c2n1 (stereo not given) | 0.597 µM and 0.726 µM and 0.723 µM | 106% and 82.9% and 90.9% | 86.3% and 83.7% and 85% | 62.1% and 66.7% and 69.9% | 40.7% and 43.3% and 42% | – | – | viability, T/C (compound 0.00316 µM): 97.6% and 98.2% and 105%; viability, T/C (compound 0.01 µM): 102% and 105% and 98.7% |
| CC1COCCN1c1cc(C2(S(C)(=N)=O)CC2)nc(-c2ccnc3[nH]ccc23)n1 (stereo not given) | > 10 µM | 91% and 100% and 107% | 108% and 96.2% and 104% | 87.9% and 110% and 96.5% | 97.9% and 98.4% and 97.6% | 87.5% and 110% and 95.1% | 65.4% and 71% and 64.8% | – |
| CCN(c1cc(-c2ccc(CN3CCOCC3)cc2)cc(C(=O)NCc2c(C)cc(C)[nH]c2=O)c1C)C1CCOCC1 | > 3 µM | – | – | – | – | – | – | viability, T/C (compound 0.00949 µM): 102% and 110% and 103%; viability, T/C (compound 0.03 µM): 111% and 109% and 112%; viability, T/C (compound 0.0949 µM): 103% and 98.8% and 101%; viability, T/C (compound 0.3 µM): 99.3% and 99% and 107%; viability, T/C (compound 0.949 µM): 122% and 101% and 121%; viability, T/C (compound 3 µM): 106% and 110% and 113% |
| CC[C@@]1(O)C(=O)OCc2c1cc1n(c2=O)Cc2cc3c(CN(C)C)c(O)ccc3nc2-1 | > 0.1 µM | 85.8% and 111% and 87.9% | 68.1% and 69.4% and 73.8% | – | – | – | – | viability, T/C (compound 0.000316 µM): 104% and 108% and 106%; viability, T/C (compound 0.001 µM): 112% and 105% and 93.5%; viability, T/C (compound 0.00316 µM): 100% and 102% and 95.9%; viability, T/C (compound 0.01 µM): 90.5% and 93.7% and 90% |
| CCc1c2c(nc3ccc(O)cc13)-c1cc3c(c(=O)n1C2)COC(=O)[C@]3(O)CC | 0.0674 µM and 0.111 µM and 0.123 µM | – | – | – | – | – | – | viability, T/C (compound 0.000949 µM): 95.1% and 92.3% and 101%; viability, T/C (compound 0.003 µM): 87% and 101% and 106%; viability, T/C (compound 0.00949 µM): 95.9% and 86.3% and 92.1%; viability, T/C (compound 0.03 µM): 62.3% and 66% and 69.1%; viability, T/C (compound 0.0949 µM): 47.3% and 57% and 58.6%; viability, T/C (compound 0.3 µM): 30.2% and 32.5% and 34.4% |
| COc1cc(C2c3cc4c(cc3C(OC3OC5COC(C)OC5C(O)C3O)C3COC(=O)C23)OCO4)cc(OC)c1O (stereo not given) | > 10 µM | 95.8% and 105% and 103% | 109% and 113% and 98.3% | 99.8% and 102% and 96.6% | 86.4% and 106% and 110% | 80.5% and 96.5% and 87.8% | 64.3% and 75.6% and 70.2% | – |
| COc1cc(Nc2ncc3c(n2)-c2ccc(Cl)cc2C(c2c(F)cccc2OC)=NC3)ccc1C(=O)O | 5.98 µM and 5.06 µM and 6.78 µM | 87.2% and 100% and 93.8% | 81% and 83.4% and 82.2% | 67.8% and 64.2% and 72.7% | 76.2% and 77.1% and 73.1% | 67% and 61% and 63.3% | 37.5% and 36.6% and 41.4% | – |
| COc1ccc([C@@H](O)c2cc(-c3ncnc4cc(N5CCOCC5)ccc34)c(F)cc2Cl)nn1 | 5.77 µM and 5.83 µM and 5.19 µM | 97% and 89.7% and 103% | 94.4% and 103% and 102% | 94.6% and 103% and 100% | 93.6% and 93.9% and 90% | 75.6% and 76.3% and 67.8% | 26.7% and 26.9% and 26.5% | – |
